Assay results taken from US20090054470A1, “USE OF MITOCHONDRIAL ELECTRON TRANSPORT INHIBITORS TO CONTROL FOULING ORGANISMS” (priority 2005, published 2009).

Experiments:
[1] = system: Artemia salina instar II larvae; assay: In vitro efficacy against Artemia salina (larval survival); format: in vivo
Experimental: 1. In Vitro Efficacy Against Artemia salina
The crustaceous marine animal Artemia salina was used as a model organism for other marine fouling organisms.
An artificial seawater medium inoculated with approximately 30 Artemia salina instar II larvae was introcuced in each well of a 24 well microtiter plate (2 ml per well). This culture was incubated with the test compound dissolved in dimethylsulfoxide (8000 ppm stock solution in DMSO) in order to have a final concentration of the test compound ranging from 0.027 ppm to 20 ppm in 24 steps. Survival of the Artemia salina larvae was evaluated after 24 and 48 hours. Zinc pyrithione was used as a reference art known antifouling agent and a DMSO solution without test compound was used as control.
The ECX value (in […]=ppm): lowest concentration of the test compound at which moderate activity (reduced vitality of Artemia salina larvae) was observed and has been listed below in Table 1.

animal fouling = assay: Field evaluation of marine antifouling activity (painted PVC boards immersed in sea water); settings: Oosterschelde at Bruinisse, average of two scores; for Fouling scores after 12 weeks: rosin paint on PVC panels; for Fouling scores after x weeks: vinylite paint on PVC panels
From the text: 2. Field Evaluation of Marine Antifouling Activity […]
Composition vinylite paint (% w/w): 9.1% test compound (74% in the dried coating), 3.2% vinylite, 87.7% cyclohexanone.
Composition rosin paint (% w/w): 6.7% test compound (18.4% in the dried coating), 34.9% rosin (69.6% in xylene), 6.3% vinyl resin, 5.7% tritolyl phosphate, 45.0% methyl isobutylketone and 1.4% xylene.
The PVC boards (10×2×0.5 cm) were painted twice to obtain a coating layer of 140 g/m^2 having a thickness of 50 μm and dried for two weeks before immersion in sea water. The exact quantity of test compound on each board was determined by comparing the initial and final weights of the PVC boards. The PVC boards were placed in a frame and suspended from the bottom of a raft at a depth of 0.6 m below the sea water surface level.
Rating system to evaluate surface fouling:
score 0: no growth on the panel score 1: up to 20% of the surface covered by fouling organisms score 2: between 21% and 40% of the surface covered by fouling organisms score 3: between 41% and 60% of the surface covered by fouling organisms score 4: between 61% and 80% of the surface covered by fouling organisms score 5: more than 81% of the surface covered by fouling organisms
Figures are an average of two scores (back and front of test panel).

Molecule | ECX (lowest concentration at which reduced vitality of Artemia salina larvae) ([1]; 24 hours) | MIC (lowest concentration at which all Artemia salina larvae dead) ([1]; 24 hours) | ECX (lowest concentration at which reduced vitality of Artemia salina larvae) ([1]; 48 hours) | MIC (lowest concentration at which all Artemia salina larvae dead) ([1]; 48 hours) | Fouling scores after 12 weeks (animal fouling) | Fouling scores after x weeks (animal fouling; 4 weeks) | Fouling scores after x weeks (animal fouling; 8 weeks) | Fouling scores after x weeks (animal fouling; 15 weeks)
CCc1nn(C)c(C(=O)NCc2ccc(C(C)(C)C)cc2)c1Cl [tebufenpyrad] | 1.13 mg/l (=ppm) | 2 mg/l (=ppm) | 0.84 mg/l (=ppm) | 1.5 mg/l (=ppm) | 1.5 |  |  | 
Zinc pyrithione | 8.44 mg/l (=ppm) | 20 mg/l (=ppm) | 6.33 mg/l (=ppm) | 11.25 mg/l (=ppm) |  |  |  | 
CC(C)(C)c1ccc(CSc2cnn(C(C)(C)C)c(=O)c2Cl)cc1 [pyridaben] | 0.36 mg/l (=ppm) | 2 mg/l (=ppm) | 0.36 mg/l (=ppm) | 0.48 mg/l (=ppm) | 1.5 |  |  | 
CC(C)(C)c1ccc(CCOc2ncnc3ccccc23)cc1 [fenazaquin] | 0.84 mg/l (=ppm) | 1.5 mg/l (=ppm) | 0.84 mg/l (=ppm) | 1.5 mg/l (=ppm) |  | 0 | 0 | 3 (score 3: between 41% and 60% of the surface covered by fouling organisms)
